# Measured values published in the OligoGym collection.
# Oligonucleotides are written 5' to 3', each unit as a sugar letter and its base; * is a phosphorothioate linkage, no mark a phosphodiester; rarer units and linkages stand in square brackets, end groups in braces. Plain capitals give the bases only. d = 2'-deoxy (DNA); r = 2'-OH (RNA)
# Molecular target: P2RX3
# Assay: reporter assay of Huesken 2005
# Conditions: siRNA
# Further: test concentration or dose not given here.
row,Substance,normalised inhibition (eCFP-eYFP dual reporter) [%]
1,sense rArArGrArCrCrUrGrCrCrGrCrUrUrCrCrArCrCdTdT / antisense rGrGrUrGrGrArArGrCrGrGrCrArGrGrUrCrUrUdCdA,39.9
2,sense rArArUrCrArGrArUrGrCrArArGrGrArUrUrCrUdTdT / antisense rArGrArArUrCrCrUrUrGrCrArUrCrUrGrArUrUdTdT,79.2
3,sense rArCrArGrCrCrArGrGrGrArCrArUrGrArArGrAdTdT / antisense rUrCrUrUrCrArUrGrUrCrCrCrUrGrGrCrUrGrUdCdA,78.1
4,sense rArCrArGrCrUrCrUrGrUrGrCrUrCrCrGrGrArCdTdT / antisense rGrUrCrCrGrGrArGrCrArCrArGrArGrCrUrGrUdAdG,59.2
5,sense rArCrCrArGrUrArCrArArArGrCrCrArArGrArAdTdT / antisense rUrUrCrUrUrGrGrCrUrUrUrGrUrArCrUrGrGrUdCdG,82.9
6,sense rArCrCrArUrCrGrGrGrArUrCrArUrCrArArCrCdTdT / antisense rGrGrUrUrGrArUrGrArUrCrCrCrGrArUrGrGrUdCdC,25.1
7,sense rArCrCrCrGrGrCrUrCrGrArCrArGrCrGrUrUrUdTdT / antisense rArArArCrGrCrUrGrUrCrGrArGrCrCrGrGrGrUdGdA,94.1
8,sense rArCrCrUrGrUrGrArGrArUrCrCrArGrGrGrCrUdTdT / antisense rArGrCrCrCrUrGrGrArUrCrUrCrArCrArGrGrUdCdC,50.2
9,sense rArCrGrCrCrArArCrArGrArGrUrCrArUrGrGrAdTdT / antisense rUrCrCrArUrGrArCrUrCrUrGrUrUrGrGrCrGrUdAdG,89.2
10,sense rArCrGrCrCrArCrCrUrCrArGrGrGrCrArCrCrUdTdT / antisense rArGrGrUrGrCrCrCrUrGrArGrGrUrGrGrCrGrUdCdA,8.6
11,sense rArCrUrCrCrUrUrCrArCrCrCrGrGrCrUrCrGrAdTdT / antisense rUrCrGrArGrCrCrGrGrGrUrGrArArGrGrArGrUdAdT,80.2
12,sense rArCrUrUrCrArCrUrArUrUrUrUrCrArUrCrArAdTdT / antisense rUrUrGrArUrGrArArArArUrArGrUrGrArArGrUdTdC,92.9
13,sense rArCrUrUrUrGrUrArGrGrGrUrGrGrGrUrUrUrUdTdT / antisense rArArArArCrCrCrArCrCrCrUrArCrArArArGrUdAdG,89.4
14,sense rArGrArCrUrArCrGrCrUrGrArArArArUrCrGrCdTdT / antisense rGrCrGrArUrUrUrUrCrArGrCrGrUrArGrUrCrUdCdA,77.1
15,sense rArGrGrArGrArArArUrArCrCrGrCrUrGrUrGrUdTdT / antisense rArCrArCrArGrCrGrGrUrArUrUrUrCrUrCrCrUdCdA,71.8
16,sense rArGrGrUrGrGrArCrArCrArGrUrGrGrArArArCdTdT / antisense rGrUrUrUrCrCrArCrUrGrUrGrUrCrCrArCrCrUdCdC,91.4
17,sense rArGrUrArCrArArArGrCrCrArArGrArArGrUrUdTdT / antisense rArArCrUrUrCrUrUrGrGrCrUrUrUrGrUrArCrUdGdG,99.5
18,sense rArGrUrCrGrGrUrGrGrUrUrGrUrGrArArGrArGdTdT / antisense rCrUrCrUrUrCrArCrArArCrCrArCrCrGrArCrUdTdG,64.9
19,sense rArGrUrUrCrArGrCrUrUrCrUrGrArUrCrArUrCdTdT / antisense rGrArUrGrArUrCrArGrArArGrCrUrGrArArCrUdAdC,72.3

row,Substance,normalised inhibition (eCFP-eYFP dual reporter) [%]
1,sense rArUrCrArArGrArArCrArGrCrArUrCrCrGrUrUdTdT / antisense rArArCrGrGrArUrGrCrUrGrUrUrCrUrUrGrArUdGdA,70.6
2,sense rArUrCrGrGrGrArUrCrArUrCrArArCrCrGrArGdTdT / antisense rCrUrCrGrGrUrUrGrArUrGrArUrCrCrCrGrArUdGdG,39.3
3,sense rArUrGrUrGrUrCrUrGrArUrUrArCrGrUrGrArCdTdT / antisense rGrUrCrArCrGrUrArArUrCrArGrArCrArCrArUdCdC,33.9
4,sense rArUrUrGrUrUrArCrUrGrArArArArUrCrArGrAdTdT / antisense rUrCrUrGrArUrUrUrUrCrArGrUrArArCrArArUdCdA,74.6
5,sense rCrArArGrGrArUrUrCrUrGrCrCrCrArGrArGrAdTdT / antisense rUrCrUrCrUrGrGrGrCrArGrArArUrCrCrUrUrGdCdA,102
6,sense rCrArGrGrCrUrArCrArArCrUrUrCrArGrGrUrUdTdT / antisense rArArCrCrUrGrArArGrUrUrGrUrArGrCrCrUrGdGdG,95.5
7,sense rCrArUrCrArArCrCrGrArGrUrArGrUrUrCrArGdTdT / antisense rCrUrGrArArCrUrArCrUrCrGrGrUrUrGrArUrGdAdT,74.7
8,sense rCrArUrCrArUrCrCrCrCrArCrCrArUrCrArUrCdTdT / antisense rGrArUrGrArUrGrGrUrGrGrGrGrArUrGrArUrGdTdT,38.5
9,sense rCrCrArArGrArUrGrArUrUrGrUrUrArCrUrGrAdTdT / antisense rUrCrArGrUrArArCrArArUrCrArUrCrUrUrGrGdTdG,98.9
10,sense rCrCrArCrArGrCrGrGrArGrArArGrCrArGrUrCdTdT / antisense rGrArCrUrGrCrUrUrCrUrCrCrGrCrUrGrUrGrGdTdC,62.7
11,sense rCrCrArCrCrUrCrArGrGrGrCrArCrCrUrCrGrGdTdT / antisense rCrCrGrArGrGrUrGrCrCrCrUrGrArGrGrUrGrGdCdG,70.2
12,sense rCrCrGrGrCrUrCrGrArCrArGrCrGrUrUrUrCrUdTdT / antisense rArGrArArArCrGrCrUrGrUrCrGrArGrCrCrGrGdGdT,98
13,sense rCrCrUrGrArCrArGrCrCrArGrGrGrArCrArUrGdTdT / antisense rCrArUrGrUrCrCrCrUrGrGrCrUrGrUrCrArGrGdTdT,33.4
14,sense rCrGrCrArCrCrCrUrCrCrUrGrArArGrGrCrUrUdTdT / antisense rArArGrCrCrUrUrCrArGrGrArGrGrGrUrGrCrGdGdT,67.9
15,sense rCrGrCrCrArCrCrUrCrArGrGrGrCrArCrCrUrCdTdT / antisense rGrArGrGrUrGrCrCrCrUrGrArGrGrUrGrGrCrGdTdC,13
16,sense rCrGrCrGrGrCrUrUrUrGrArCrCrArArCrCrCrAdTdT / antisense rUrGrGrGrUrUrGrGrUrCrArArArGrCrCrGrCrGdAdT,84.4
17,sense rCrGrGrCrUrCrGrArCrArGrCrGrUrUrUrCrUrGdTdT / antisense rCrArGrArArArCrGrCrUrGrUrCrGrArGrCrCrGdGdG,86
18,sense rCrGrUrGrArArCrUrArCrArGrCrUrCrUrGrUrGdTdT / antisense rCrArCrArGrArGrCrUrGrUrArGrUrUrCrArCrGdCdA,42
